What follows are compounds tested against T1, human GnRH receptors (Homo sapiens, UniProt P30968) (assay: Radioligand binding: inhibition of 125I-GnRH-A binding to human GnRH receptor membranes). Details: HEK 293 cell membranes.
T1 construct: expressed in transfected cells; host or cells: HEK 293 cells, stably transfected; membranes
T1 sequence (P30968 1-328): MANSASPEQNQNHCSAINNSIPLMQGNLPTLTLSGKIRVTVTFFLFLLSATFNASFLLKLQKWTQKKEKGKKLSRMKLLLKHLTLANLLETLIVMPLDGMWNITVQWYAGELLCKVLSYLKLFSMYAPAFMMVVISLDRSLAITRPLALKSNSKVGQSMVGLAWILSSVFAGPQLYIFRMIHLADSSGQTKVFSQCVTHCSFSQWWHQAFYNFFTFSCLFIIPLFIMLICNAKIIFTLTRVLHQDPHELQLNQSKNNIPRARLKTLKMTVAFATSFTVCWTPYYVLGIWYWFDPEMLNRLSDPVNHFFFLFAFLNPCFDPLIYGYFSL
Protocol: HEK 293 cells stably transfected with mouse or human GnRH receptors as described above were grown in Dulbecco's high-glucose, modified Eagle's medium (DMEM) supplemented with 0.2% G418, 10% fetal bovine serum (FBS) and 100 U/mL penicillin/streptomycin. GH3 cells stably transfected with the rat GnRH receptor (GGH3) were provided by Dr. William Chin (Harvard Medical School, Boston, Mass.). These cells have been extensively characterized previously (Kaiser et al., 1997). The cells were grown in low glucose DMEM containing: 100U/mL penicillin/streptomycin, 0.6% G418 and 10% heat-inactivated FBS.
HEK 293 cells containing mouse or human receptors, or rat pituitaries (Pel Freez Biologicals, Rogers, Ark.) were homogenized in buffer A containing: 50 mM Tris (pH 7.4), 0.32 M sucrose, 2 mM EGTA, 1 mM PMSF, 5 μg/ml aprotinen, 5 μg/ml Pepstatin A, and 1 μg/ml leupeptin. Homogenized cells were centrifuged at 4° C. at 20,000×g for 25 minutes, re-suspended in buffer A and re-centrifuged at 4° C. at 20,000×g for an additional 25 minutes. Total membrane protein was determined with a BCA kit (Pierce, Rockford, Ill.). Membranes were stored at −70° C. at a final membrane protein concentration of approximately 5 mg/ml.
The radioiodinated agonist analog of GnRH, [des-Gly^10,D-Ala^6]GnRH ethylamide (^125I-GnRH-A), was used as the radioligand. […] The reaction mixture was vortexed and incubated for 1 minute at room temperature. After one minute, the mixture was vortexed and allowed to incubate for an additional minute. 2 ml of 0.5 M acetic acid/1% BSA was added to the reaction tube and the mixture was added to a C18 Sep-Pak cartridge. The cartridge was washed with subsequent washes of 5 ml H2O and 5 ml 0.5 M acetic acid and then eluted with 5×1 ml of 60% CH3CN/40% 0.5 M acetic acid. The eluate was diluted with 3× volume of HPLC buffer A (0.1% TFA in H2O) and loaded onto a C18 column. The iodinated product was eluted over 20-25 min with a gradient of 25-100% CH3CN containing 0.1% TFA. The radioactive fractions (750 μl/fraction) were collected into clean polypropylene tubes containing 100 μl of 10% BSA. Fractions were assessed for biological activity by radioligand binding. Specific activity of the radioligand was approximately 2200 Ci/mmol.
Membranes were diluted to 0.01-0.5 mg/ml (depending upon the species of receptor) with assay buffer containing 50 mM HEPES (pH 7.4), 1 mM EDTA, 2.5 mM MgCl2, and 0.1% BSA. Membranes (diluted to utilize similar receptor numbers between assays) were incubated with approximately 0.04-0.06 nM ^125I-GnRH-A in the presence or absence of competing agents (0.1-10,000 nM) in a total volume of 200 μl in 96-well polypropylene plates for 1 hour at room temperature. Assays were stopped by rapid filtration onto 96-well GF/C filters soaked in 0.1% polyethylenimine (PEI) utilizing a Packard 96-well cell harvester. Filters were washed three times with ice-cold PBS (50 mM NaPO4, 0.9% NaCl, 2 mM MgCl2, and 0.02% NaN3, pH 7.4). 35 μl of scintillation cocktail was added to each filter well and filters were counted on a Packard Topcount. Control dose-response curves were generated to GnRH (0.1 nM-100 nM) in each competition binding experiment. Ki values were calculated from IC50 values according to Cheng et al., Biochemical Pharmacol. 22: 3099-3108, 1973. [formula]

Structure (SMILES)	Ki [nM]
COc1nc(N2CCC[C@H]2C(=O)OC(C)(C)C)nc(OC)c1NC(=O)c1ccc(Cc2cc3c(cc2C)C(C)(C)OC3(C)C)o1 [Example D24, tert-Butyl 1-[4,6-dimethoxy-5-({5-[(1,1,3,3,6-pentamethyl-1,3-dihydro-2-benzofuran-5-yl)methyl]-2-furoyl}amino)pyrimidin-2-yl]prolinate]	360
C=C(C)CN(Cc1ccco1)c1nc(OC)c(NC(=O)c2ccc(Cc3cc4c(cc3C)C(C)(C)OC4(C)C)o2)c(OC)n1 [Example D25, N-{2-[(2-Furylmethyl)(2-methylprop-2-enyl)amino]-4,6-dimethoxypyrimidin-5-yl}-5-[(1,1,3,3,6-pentamethyl-1,3-dihydro-2-benzofuran-5-yl)methyl]-2-furamide]	460
COc1nc(N2CCN(CCC#N)CC2)nc(OC)c1NC(=O)c1ccc(Cc2cc3c(cc2C)C(C)(C)OC3(C)C)o1 [Example D26, N-{2-[4-(2-cyanoethyl)piperazin-1-yl]-4,6-dimethoxy-pyrimidin-5-yl}-5-[(1,1,3,3,6-pentamethyl-1,3-dihydro-2-benzofuran-5-yl)methyl]-2-furamide]	84
COc1nc(N(C)CC(=O)O)nc(OC)c1NC(=O)c1ccc(Cc2cc3c(cc2C)C(C)(C)OC3(C)C)o1 [Example D27, N-[4,6-Dimethoxy-5-({5-[(1,1,3,3,6-pentamethyl-1,3-dihydro-2-benzofuran-5-yl)methyl]-2-furoyl}amino)pyrimidin-2-yl]-N-methylglycine]	250
COc1nc(NCc2ccccc2Br)nc(OC)c1NC(=O)c1ccc(Cc2cc3c(cc2C)C(C)(C)OC3(C)C)o1 [Example D28, N-{2-[(2-Bromobenzyl)amino]-4,6-dimethoxypyrimidin-5-yl}-5-[(1,1,3,3,6-pentamethyl-1,3-dihydro-2-benzofuran-5-yl)methyl]-2-furamide]	30
COc1nc(N(C)Cc2cccc(C)n2)nc(OC)c1NC(=O)c1ccc(Cc2cc3c(cc2C)C(C)(C)OC3(C)C)o1 [Example D29, N-(4,6-Dimethoxy-2-{methyl[(6-methylpyridin-2-yl)methyl]amino}pyrimidin-5-yl)-5-[(1,1,3,3,6-pentamethyl-1,3-dihydro-2-benzofuran-5-yl)methyl]-2-furamide]	54
COc1nc(N2CCN(CC(=O)N(C)C)CC2)nc(OC)c1NC(=O)c1ccc(Cc2cc3c(cc2C)C(C)(C)OC3(C)C)o1 [Example D30, N-(2-{4-[2-(Dimethylamino)-2-oxoethyl]piperazin-1-yl}4,6-dimethoxypyrimidin-5-yl)-5-[(1,1,3,3,6-pentamethyl-1,3-dihydro-2-benzofuran-5-yl)methyl]-2-furamide]	46
COc1nc(NC2CCCCC2C2CCCCC2)nc(OC)c1NC(=O)c1ccc(Cc2cc3c(cc2C)C(C)(C)OC3(C)C)o1 (stereo not shown) [Example D31, N-{2-[1,1′-Bi(cyclohexyl)-2-ylamino]4,6-dimethoxy-pyrimidin-5-yl}-5-[(1,1,3,3,6-pentamethyl-1,3-dihydro-2-benzofuran-2-benofuran-5-yl)methyl]-2-furamide]	6700
COc1nc(N[C@@H]2CCC[C@H]2OCc2ccccc2)nc(OC)c1NC(=O)c1ccc(Cc2cc3c(cc2C)C(C)(C)OC3(C)C)o1 [Example D32, N-(2-{[(1R,2R)-2-(Benzyloxy)cyclopentyl]amino}-4,6-dimethoxypyrimidin-5-yl)-5-[(1,1,3,3,6-pentamethyl-1,3-dihydro-2-benzofuran-5-yl)methyl]-2-furamide]	22
COc1nc(NC2CCN(Cc3ccccc3)CC2)nc(OC)c1NC(=O)c1ccc(Cc2cc3c(cc2C)C(C)(C)OC3(C)C)o1 [Example D33, N-{2-[(1-Benzylpiperidin-4-yl)amino]-4,6-dimethoxypyrimidin-5-yl}-5-[(1,1,3,3,6-pentamethyl-1,3-dihydro-2-benzofuran-5-yl)methyl]-2-furamide]	46
COc1cc(CNc2nc(OC)c(NC(=O)c3ccc(Cc4cc5c(cc4C)C(C)(C)OC5(C)C)o3)c(OC)n2)cc(OC)c1OC [Example D34, N-{4,6-Dimethoxy-2-[(3,4,5-trimethoxybenzyl)amino]-pyrimidin-5-yl}-5-[(1,1,3,3,6-pentamethyl-1,3-dihydro-2-benzofuran-5-yl)methyl]-2-furamide]	14
COc1nc(NCCNC2C3CC4CC(C3)CC2C4)nc(OC)c1NC(=O)c1ccc(Cc2cc3c(cc2C)C(C)(C)OC3(C)C)o1 (stereo not shown) [Example D35, N-(2-{[2-(2-Adamantylamino)ethyl]amino}-4,6-dimethoxypyrimidin-5-yl)-5-[(1,1,3,3,6-pentamethyl-1,3-dihydro-2-benzofuran-5-yl)methyl]-2-furamide]	2.6
COc1nc(NCc2ccc(C(F)(F)F)nc2)nc(OC)c1NC(=O)c1ccc(Cc2cc3c(cc2C)C(C)(C)OC3(C)C)o1 [Example D36, N-[4,6-Dimethoxy-2-({[6-(trifluoromethyl)pyridin-3-yl]-methyl}amino)pyrimidin-5-yl]-5-[(1,1,3,3,6-pentamethyl-1,3-dihydro-2-benzofuran-5-yl)methyl]-2-furamide]	87
CCCCN(CCC#N)c1nc(OC)c(NC(=O)c2ccc(Cc3cc4c(cc3C)C(C)(C)OC4(C)C)o2)c(OC)n1 [Example D37, N-{2-[Butyl(2-cyanoethyl)amino]-4,6-dimethoxypyrimidin-5-yl}-5-[(1,1,3,3,6-pentamethyl-1,3-dihydro-2-benzofuran-5-yl)methyl]-2-furamide]	41
COc1nc(N2CCN(c3ccccc3F)CC2)nc(OC)c1NC(=O)c1ccc(Cc2cc3c(cc2C)C(C)(C)OC3(C)C)o1 [Example D43, N-{2-[4-(2-Fluorophenyl)piperazin-1-yl]-4,6-dimethoxypyrimidin-5-yl}-5-[(1,1,3,3,6-pentamethyl-1,3-dihydro-2-benzofuran-5-yl)methyl]-2-furamide]	160
COc1nc(N(Cc2ccccn2)Cc2ccccn2)nc(OC)c1NC(=O)c1ccc(Cc2cc3c(cc2C)C(C)(C)OC3(C)C)o1 [Example D45, N-{2-[Bis(pyridin-2-ylmethyl)amino]-4,6-dimethoxy-pyrimidin-5-yl}-5-[(1,1,3,3,6-pentamethyl-1,3-dihydro-2-benzofuran-5-yl)methyl]-2-furamide]	200
COc1nc(N2CCN(CCN3CCOCC3)CC2)nc(OC)c1NC(=O)c1ccc(Cc2cc3c(cc2C)C(C)(C)OC3(C)C)o1 [Example D46, N-{4,6-Dimethoxy-2-(4-(2-morpholin-4-ylethyl)piperazin-1-yl]pyrimidin-5-yl}-5-[(1,1,3,3,6-pentamethyl-1,3-dihydro-2-benzofuran-5-yl)methyl]-2-furamide]	19
COc1nc(N(CCN(C)C)Cc2ccc(F)cc2)nc(OC)c1NC(=O)c1ccc(Cc2cc3c(cc2C)C(C)(C)OC3(C)C)o1 [Example D47, N-{2-[[2-(Dimethylamino)ethyl](4-fluorobenzyl)amino]-4,6-dimethoxypyrimidin-5-yl}-5-[(1,1,3,3,6-pentamethyl-1,3-dihydro-2-benzofuran-5-yl)methyl]-2-furamide]	79
CCc1ccc(CN(CCCO)c2nc(OC)c(NC(=O)c3ccc(Cc4cc5c(cc4C)C(C)(C)OC5(C)C)o3)c(OC)n2)cc1 [Example D48, N-{2-[(4-Ethylbenzyl)(3-hydroxypropyl)amino]-4,6-dimethoxypyrimidin-5-yl}-5-[(1,1,3,3,6-pentamethyl-1,3-dihydro-2-benzofuran-5-yl)methyl]-2-furamide]	240

Reference: patent publication US6833372B2, “Non-peptide GnRH agents, Pharmaceutical compositions, and methods for their use” (Pfizer, Inc., priority 2002, dated 2004)
